Experimental data reported in US11116740B2, “Methods for use in support of planned supplement and food ingredient products for diagnosis and treatment of metabolic syndrome” (priority 2015, dated 2021).

Legend:
[1] = Serum fatty acid profile (% serum fatty acids, GC/MS), feeding study; assay type: in vivo, bottlenose dolphin (Tursiops truncatus)
Method: The dolphins started on a 100% capelin diet.
Changes in percent serum for the targeted fatty acids (C17:0, C20:4n6, and C22:0), as well as insulin, glucose, triglycerides, iron, transferrin saturation, and ferritin, were assessed among feeding study dolphins during weeks 3, 6, 12, 18 and 24 and compared to week 0 using pairwise comparison t-tests. Erythrocyte membrane fatty acids were measured during weeks 3, 6, 12, 18, and 24. Serum ferritin in Group A dolphins increased.
Blood was collected into BD Vacutainer serum separator tubes (for insulin, iron, ferritin, serum fatty acids profile, and serum chemistry), EDTA BD Vacutainer blood collection tubes (for erythrocyte fatty acid profile), and Lithium Heparin BD Vacutainer blood collection tubes (for plasma chemistry, including triglycerides). Blood tubes were centrifuged at 3000 rpm for 10 minutes within 30-60 minutes of collection and chilled during processing until shipment. Remaining serum/plasma was transferred to cryovials and stored at −80° C. until shipment on dry ice via overnight courier to the reference laboratories.
Serum and red blood cell membrane fatty acid profiles were performed by the Genetics Laboratories at the Kennedy Krieger Institute. Fatty acids were analyzed by capillary gas chromatography/mass spectrometry of pentaflourobenzyl bromide fatty acid derivatives using an AT-Silar-100 column (Grace, Columbia, Md. 21044) as previously described. For red blood cells only, the lipids were extracted with hexane:isopropanol before analysis. Each run was required to pass clinical laboratory quality control before the data were released. CV % were typically under 10%. Percent fatty acids in serum was used as a sturdier index to help reduce potential variability in serum among study dolphins. Iron, TIBC, and ferritin were analyzed at the Kansas State Veterinary Diagnostic Laboratory by colorimetric analysis on the Roche Cobas Mira (Roche Diagnostics, Indianapolis, Ind. 46250) per the manufacturer's protocol. Plasma triglycerides and glucose were directly measured using the Roche Cobas 8000 system (Roche Diagnostics, Indianapolis, Ind. 46250) per the manufacturers' protocol. Glucose was measured photometrically at the Animal Health Diagnostic Center at Cornell University on the Roche Diagnostics Modular Analytics P Module clinical chemistry analyzer (Roche Diagnostics, Indianapolis, Ind. 46250). Total insulin was analyzed at ARUP Laboratories by ultrafiltration/quantitative chemiluminescent immunoassay on the Siemens ADVIA Centaur Immunoassay system (Siemens Medical Solutions USA, Inc., Malvern, Pa. 19355).

[2] = Serum fatty acid metabolomics (UPLC-MS/MS), feeding study
Method: This study examined global metabolic profiles in six dolphins (“Group A dolphins”). The dolphins lived in netted enclosures within San Diego Bay. The dolphins started on a 100% capelin diet. Group A dolphins were fed one-third of their daily diet in the morning after their routine overnight fast and 2h postprandial, in-water, and trained blood samples were drawn (typically near 10:00 a.m.). An additional four dolphins (“Group C dolphins”) were fed the capelin diet.
Two hour post-prandial samples were collected from the dolphins at baseline (week 0) and at four time points following the switch to the modified diet: 6, 12, 18, and 24 weeks. Routine monthly samples collected from four reference dolphins that were housed in the same environment as the Group A dolphins were assessed for glucose, triglycerides, ferritin, and percent serum fatty acids.
Sample Preparation: Samples were prepared using the automated MicroLab STAR® system from Hamilton Company. Several recovery standards were added prior to the first step in the extraction process for QC purposes. Proteins were precipitated with methanol under vigorous shaking for 2 min (Glen Mills GenoGrinder 2000) followed by centrifugation. The resulting extract was divided into five fractions: two for analysis by two separate reverse phase (RP)/UPLC-MS/MS methods with positive ion mode electrospray ionization (ESI), one for analysis by RP/UPLC-MS/MS with negative ion mode ESI, one for analysis by HILIC/UPLC-MS/MS with negative ion mode ESI, and one sample was reserved. Samples were placed briefly on a TurboVap® (Zymark) to remove the organic solvent. The sample extracts were stored overnight under nitrogen before preparation for analysis.
Ultrahigh Performance Liquid Chromatography-Tandem Mass Spectroscopy (UPLC-MS/[…]): Each of four methods utilized a Waters ACQUITY ultra-performance liquid chromatography (UPLC) and a Thermo Scientific Q-Exactive high resolution/accurate mass spectrometer interfaced with a heated electrospray ionization (HESI-II) source and Orbitrap mass analyzer operated at 35,000 mass resolution. A sample extract was dried, then reconstituted in solvents compatible to each of the four methods. Each reconstitution solvent contained a series of standards at fixed concentrations to ensure injection and chromatographic consistency. A first aliquot was analyzed using acidic positive ion conditions, chromatographically optimized for more hydrophilic compounds. In this method, the extract was gradient eluted from a C18 column (Waters UPLC BEH C18-2. 1×100 mm, 1.7 μm) using water and methanol, containing 0.05% perfluoropentanoic acid (PFPA) and 0.1% formic acid (FA). A second aliquot was also analyzed using acidic positive ion conditions, however it was chromatographically optimized for more hydrophobic compounds. In this method, the extract was gradient eluted from the same afore mentioned C18 column using methanol, acetonitrile, water, 0.05% PFPA and 0.01% FA and was operated at an overall higher organic content. A third aliquot was analyzed using basic negative ion optimized conditions using a separate dedicated C 18 column. The basic extracts were gradient eluted from the column using methanol and water, however with 6.5 mM Ammonium Bicarbonate at pH 8. […] The MS analysis alternated between MS and data-dependent MSn scans using dynamic exclusion. The scan range varied slighted between methods but covered 70-1000 m/z.
Data Extraction and Compound Identification: Raw data was extracted, peak-identified and QC processed using Metabolon's hardware and software. The systems were based on a web-service platform utilizing Microsoft's .NET technologies, which ran on high-performance application servers and fiber-channel storage arrays in clusters to provide active failover and load-balancing. Compounds were identified by comparison to library entries of purified standards or recurrent unknown entities.

[3] = bottlenose dolphin (Tursiops truncatus), in vivo, 6 weeks
[4] = bottlenose dolphin (Tursiops truncatus), in vivo, 12 weeks
[5] = bottlenose dolphin (Tursiops truncatus), in vivo, 18 weeks
[6] = bottlenose dolphin (Tursiops truncatus), in vivo, 24 weeks
[7] = bottlenose dolphin (Tursiops truncatus), in vivo, 3 weeks
[8] = Group A dolphins, modified diet, proportional to value at outset of study

| SMILES | Serum fatty acids (%) ([1]; Group A dolphins, modified diet, week 3) | Serum fatty acids (%) ([1]; Group A dolphins, modified diet, week 6) | Serum fatty acids (%) ([1]; Group A dolphins, modified diet, week 12) | Serum fatty acids (%) ([1]; Group A dolphins, modified diet, week 18) | Serum fatty acids (%) ([1]; Group A dolphins, modified diet, week 24) | serum concentration 6 wk / 0 wk [2, 3] | serum concentration 12 wk / 0 wk [2, 4] | serum concentration 18 wk / 0 wk [2, 5] | serum concentration 24 wk / 0 wk [2, 6] | Serum fatty acids (%) [1, 7] [%] | Serum fatty acids (%) [1, 3] [%] | Serum fatty acids (%) [1, 4] [%] | Serum fatty acids (%) [1, 5] [%] | Serum fatty acids (%) [1, 6] [%] | serum concentration 6 wk / 0 wk [2, 8] | serum concentration 12 wk / 0 wk [2, 8] | serum concentration 18 wk / 0 wk [2, 8] | serum concentration 24 wk / 0 wk [2, 8] | serum levels compared to week 0 ([1]; in vivo) |
| --- | --- | --- | --- | --- | --- | --- | --- | --- | --- | --- | --- | --- | --- | --- | --- | --- | --- | --- | --- |
| CCCCCCCCCCCCCCCCCCCCCC(=O)O [Behenic acid] | 0.21 ± 0.06 | 0.25 ± 0.07 | 0.28 ± 0.06 | 0.26 ± 0.04 | 0.29 ± 0.04 | – | – | – | – | – | – | – | – | – | – | – | – | – | – |
| CCCCC/C=C\C/C=C\C/C=C\C/C=C\CCCC(=O)O [Arachidonic acid, (5Z,8Z,11Z,14Z)-icosa-5,8,11,14-tetraenoic acid] | – | – | – | – | – | 1.19 | 1.62 | 1.5 | 1.19 | 6 ± 2 | 7 ± 2 | 10 ± 4 | 10 ± 3 | 10 ± 3 | – | – | – | – | – |
| CCCCCCCCCCCCCCCCC(=O)O [Heptadecanoic acid, heptadecanoic acid] | – | – | – | – | – | – | – | – | – | 0.5 ± 0.2 | 0.5 ± 0.1 | 0.7 ± 0.3 | 0.8 ± 0.4 | 0.7 ± 0.2 | 1.25 | 1.65 | 1.72 | 1.21 | higher |
